# BindingDB's records for doi:10.1080/14756360109162352 (Universit&Agrave, 2001)
# pKi: −log10 of the molar value.
# Biological target: T1, Neutrophil elastase (Homo sapiens, UniProt P08246)
# T1 sequence (P08246 whole entry): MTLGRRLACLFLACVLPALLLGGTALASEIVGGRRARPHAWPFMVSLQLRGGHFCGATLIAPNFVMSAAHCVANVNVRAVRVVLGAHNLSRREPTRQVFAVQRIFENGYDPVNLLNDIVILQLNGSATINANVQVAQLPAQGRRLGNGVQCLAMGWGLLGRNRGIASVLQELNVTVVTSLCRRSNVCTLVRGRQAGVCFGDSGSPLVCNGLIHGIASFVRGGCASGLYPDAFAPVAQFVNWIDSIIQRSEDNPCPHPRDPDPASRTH
# Experiment: Enzyme Assay
# Details: 25 °C
# Method: The enzyme were assayed spectrophotometrically at 410nm with p-nitroanilide substrates at 25 C.
row,pKi,Structure (SMILES)
1,4.03,"Cc1nn(-c2ccccc2)c2c1NOC(=O)N2 [Pyrazolooxadiazinone, 2a]"
2,3.68,"Cc1nn(C)c2c1NOC(=O)N2 [Pyrazolooxadiazinone, 2b]"
3,4.06,"Cc1nn(-c2ccc(Cl)cc2)c2c1NOC(=O)N2 [Pyrazolooxadiazinone, 2c]"
4,< 2.08,"Cc1nn(-c2ccccc2[N+](=O)[O-])c2c1NOC(=O)N2 [Pyrazolooxadiazinone, 2g]"
5,< 2.08,"Cc1nn(-c2cccc([N+](=O)[O-])c2)c2c1NOC(=O)N2 [Pyrazolooxadiazinone, 2h]"
6,3.70,"CCc1nn(C)c2c1NOC(=O)N2 [Pyrazolooxadiazinone, 2j]"
7,3.95,"CCCCc1nn(C)c2c1NOC(=O)N2 [Pyrazolooxadiazinone, 2l]"
